# Source: patent publication US10370401B2, “Substituted nucleosides, nucleotides and analogs thereof” (Alios BioPharma, Inc., priority 2013, dated 2019)
# Read-outs that look alike come from different tables or passages of the source.
# Columns and labels:
# Type in all cases: cell-based
# Human rhinovirus 1B = test: Picornavirus assay (CPE, CellTiter-Glo, HeLa-OHIO cells); details: Rhinovirus A, 96 h; Human rhinovirus 1B, HeLa-OHIO cells, 4 d at 33° C.; read-out: EC50
# [1] = test system: human rhinovirus 16 (HRV-16), coxasackie B3 (CVB3), enterovirus-68 (EV-68) and enterovirus-71 (EV-71); test: Enterovirus assay (four viruses, CellTiter Glo)
# HRV-89 = test: Human rhinovirus strain panel assay, HRV-89; details: Rhinovirus A, HRV89; HRV-89; HeLa-OHIO cells; read-out: EC50
# subgenomic HCV replicon = test: HCV replicon assay (Huh-7, luciferase reporter); details: Hepatitis C virus; Huh-7 HCV replicon cells, luciferase, 72 hours; read-out: EC50
# [2] = Cytotoxicity in HeLa OHIO host cell line; details: human, HeLa-OHIO cells, n>5
smiles,measurement,setting,value
CC(C)OC(=O)OCOP(=O)(OCOC(=O)OC(C)C)OC[C@@]1(CF)O[C@@H](n2ccc(=O)[nH]c2=O)[C@](C)(O)[C@@H]1O [Compound 44],EC50,Human rhinovirus 1B,< 1 µM
same,EC50,"[1]; HRV-16, CVB3, EV-68 (HeLa-OHIO cells) and EV-71 (RD cells), read-out: EC50 ranging (across four viruses)",0.38 to 2.52 µM
same,EC50,"[1]; mean over HRV-16, CVB3, EV-68 and EV-71, read-out: EC50 mean (across four viruses)",1.39 ± 1.14 µM
same,EC50,HRV-89,1 to 2 µM
same,EC50,subgenomic HCV replicon,< 1 µM
same,CC50,[2],> 100 µM
